Values after ≈ are worked out from the molar mass of the structure shown. Active and inactive are the calls of the source. The calls are words filed in the database; no cut-off is given here.
How the values were obtained:
[1] = tested on: HepG2; experiment: Cell cycle arrest in human HepG2 cells assessed as accumulation at sub-G1 phase at 1.6 ug/mL after 48 hrs by propidium iodide staining-based flow cytometric analysis (reference value: 3%); assay type: functional
[2] = tested on: HepG2; experiment: Cell cycle arrest in human HepG2 cells assessed as accumulation at G2/M phase at 8 ug/mL after 24 hrs by propidium iodide staining-based flow cytometric analysis (reference value: 9%); assay type: functional
[3] = tested on: HepG2; experiment: Cell cycle arrest in human HepG2 cells assessed as accumulation at S phase at 8 ug/mL after 24 hrs by propidium iodide staining-based flow cytometric analysis (reference value: 46%); assay type: functional
[4] = tested on: HepG2; experiment: Cell cycle arrest in human HepG2 cells assessed as accumulation at G1 phase at 8 ug/mL after 24 hrs by propidium iodide staining-based flow cytometric analysis (reference value: 45%); assay type: functional
[5] = tested on: HepG2; experiment: Cell cycle arrest in human HepG2 cells assessed as accumulation at sub-G1 phase at 8 ug/mL after 24 hrs by propidium iodide staining-based flow cytometric analysis (reference value: 4%); assay type: functional
[6] = tested on: HepG2; experiment: Cell cycle arrest in human HepG2 cells assessed as accumulation at G2/M phase at 6.4 ug/mL after 24 hrs by propidium iodide staining-based flow cytometric analysis (reference value: 9%); assay type: functional
[7] = tested on: HepG2; experiment: Cell cycle arrest in human HepG2 cells assessed as accumulation at S phase at 6.4 ug/mL after 24 hrs by propidium iodide staining-based flow cytometric analysis (reference value: 46%); assay type: functional
[8] = tested on: HepG2; experiment: Cell cycle arrest in human HepG2 cells assessed as accumulation at G1 phase at 6.4 ug/mL after 24 hrs by propidium iodide staining-based flow cytometric analysis (reference value: 45%); assay type: functional
[9] = tested on: HepG2; experiment: Cell cycle arrest in human HepG2 cells assessed as accumulation at sub-G1 phase at 6.4 ug/mL after 24 hrs by propidium iodide staining-based flow cytometric analysis (reference value: 4%); assay type: functional
[10] = tested on: HepG2; experiment: Cell cycle arrest in human HepG2 cells assessed as accumulation at G2/M phase at 4.8 ug/mL after 24 hrs by propidium iodide staining-based flow cytometric analysis (reference value: 9%); assay type: functional
[11] = tested on: HepG2; experiment: Cell cycle arrest in human HepG2 cells assessed as accumulation at S phase at 4.8 ug/mL after 24 hrs by propidium iodide staining-based flow cytometric analysis (reference value: 46%); assay type: functional
[12] = tested on: HepG2; experiment: Cell cycle arrest in human HepG2 cells assessed as accumulation at G1 phase at 4.8 ug/mL after 24 hrs by propidium iodide staining-based flow cytometric analysis (reference value: 45%); assay type: functional
[13] = tested on: HepG2; experiment: Cell cycle arrest in human HepG2 cells assessed as accumulation at sub-G1 phase at 4.8 ug/mL after 24 hrs by propidium iodide staining-based flow cytometric analysis (reference value: 4%); assay type: functional
[14] = tested on: HepG2; experiment: Cell cycle arrest in human HepG2 cells assessed as accumulation at G2/M phase at 3.2 ug/mL after 24 hrs by propidium iodide staining-based flow cytometric analysis (reference value: 9%); assay type: functional
[15] = tested on: HepG2; experiment: Cell cycle arrest in human HepG2 cells assessed as accumulation at S phase at 3.2 ug/mL after 24 hrs by propidium iodide staining-based flow cytometric analysis (reference value: 46%); assay type: functional
[16] = tested on: HepG2; experiment: Cell cycle arrest in human HepG2 cells assessed as accumulation at G1 phase at 3.2 ug/mL after 24 hrs by propidium iodide staining-based flow cytometric analysis (reference value: 45%); assay type: functional
[17] = tested on: HepG2; experiment: Cell cycle arrest in human HepG2 cells assessed as accumulation at sub-G1 phase at 3.2 ug/mL after 24 hrs by propidium iodide staining-based flow cytometric analysis (reference value: 4%); assay type: functional
[18] = tested on: HepG2; experiment: Cell cycle arrest in human HepG2 cells assessed as accumulation at G2/M phase at 1.6 ug/mL after 24 hrs by propidium iodide staining-based flow cytometric analysis (reference value: 9%); assay type: functional
[19] = tested on: HepG2; experiment: Cell cycle arrest in human HepG2 cells assessed as accumulation at S phase at 1.6 ug/mL after 24 hrs by propidium iodide staining-based flow cytometric analysis (reference value: 46%); assay type: functional
[20] = tested on: HepG2; experiment: Cell cycle arrest in human HepG2 cells assessed as accumulation at G1 phase at 1.6 ug/mL after 24 hrs by propidium iodide staining-based flow cytometric analysis (reference value: 45%); assay type: functional
[21] = tested on: HepG2; experiment: Cell cycle arrest in human HepG2 cells assessed as accumulation at sub-G1 phase at 1.6 ug/mL after 24 hrs by propidium iodide staining-based flow cytometric analysis (reference value: 4%); assay type: functional
[22] = tested on: HepG2; experiment: Induction of apoptosis in human HepG2 cells assessed as apoptotic body formation at 8 ug/mL after 24 hrs by acridine orange/ethidium bromide staining-based fluorescence microscopic analysis; assay type: functional, cell-based
[23] = tested on: HepG2; experiment: Induction of apoptosis in human HepG2 cells assessed as nuclear condensation at 4.8 ug/mL after 24 hrs by acridine orange/ethidium bromide staining-based fluorescence microscopic analysis; assay type: functional, cell-based
[24] = tested on: HepG2; experiment: Induction of apoptosis in human HepG2 cells assessed as membrane damage at 4.8 to 8 ug/mL after 24 hrs by acridine orange/ethidium bromide staining-based fluorescence microscopic analysis; assay type: functional, cell-based
[25] = tested on: HepG2; experiment: Induction of apoptosis in human HepG2 cells assessed as appearance of membrane blebbing at 4.8 to 8 ug/mL after 24 hrs by inverted microscopic analysis relative to control; assay type: functional, cell-based
[26] = tested on: HepG2; experiment: Induction of apoptosis in human HepG2 cells assessed as appearance of cell shrinkage at 4.8 to 8 ug/mL after 24 hrs by inverted microscopic analysis relative to control; assay type: functional, cell-based
[27] = tested on: HepG2; experiment: Cytotoxicity against human HepG2 cells assessed as cell viability after 72 hrs by MTT assay; assay type: functional, cell-based; conditions: HepG2, 72 h
[28] = tested on: HepG2; experiment: Cytotoxicity against human HepG2 cells assessed as cell viability after 48 hrs by MTT assay; assay type: functional, cell-based; conditions: HepG2, 48 h
[29] = tested on: HepG2; experiment: Cytotoxicity against human HepG2 cells assessed as cell viability after 24 hrs by MTT assay; assay type: functional, cell-based; conditions: HepG2, 24 h
[30] = tested on: HepG2; experiment: Cytotoxicity against human HepG2 cells assessed as decrease in cell viability at 1.6 to 8 ug/mL by MTT assay; assay type: functional, cell-based; conditions: TDE = time-dependent effect
[31] = tested on: HepG2; experiment: Cytotoxicity against human HepG2 cells assessed as decrease in cell viability after 24 to 72 hrs by MTT assay; assay type: functional, cell-based

Compound `COC1=CC(=O)c2c(O)cccc2C1=O` has an Activity [1] of 6%, an Activity [2] of 0% and an Activity [3] of 59%. For the same compound, the Activity [4] was 41%, the Activity [5] was 7% and the Activity [6] was 2%. The Activity [7] was 61%, the Activity [8] was 37% and the Activity [9] was 6%. It also gave an Activity [10] of 0%, an Activity [11] of 62% and an Activity [12] of 38%. For the same compound, the Activity [13] was 7%, the Activity [14] was 2% and the Activity [15] was 64%. For the same compound, the Activity [16] was 34%, the Activity [17] was 2% and the Activity [18] was 1%. It also gave an Activity [19] of 62%, an Activity [20] of 37% and an Activity [21] of 5%. For the same compound, the Activity [22] was “Active”, the Activity [23] was “Active” and the Activity [24] was “Active”. The Activity [25] was “Active”, the Activity [26] was “Active” and the IC50 [27] was 2.7 µg/mL (≈ 13.2 µM). For the same compound, the IC50 [28] was 3.7 µg/mL (≈ 18.1 µM), the IC50 [29] was 3.8 µg/mL (≈ 18.6 µM) and the Activity [30] was “tde”. The Activity [31] was “Dose-dependent effect”.
